The values below come from patent US5057520A, “7-(peptidylpyrolidinyl)naphthyridine antibacterial compounds” (Abbott Laboratories, priority 1989, dated 1991).

≈ marks a conversion by molar mass, not a printed value. Where a name gives a salt, the structure may show the parent alone. Read-outs that look alike come from different tables or passages of the source.

By MIC is commonly meant the lowest concentration that inhibits growth of the organism. A higher MIC goes with weaker potency.

The test system of data set [1] is PSEUDOMONAS AERUGINOSA K799/61. The data set can be described thus: In vitro MIC, agar dilution (BHIA). It counts as cell-based. A general note: In agar dilution, organisms are placed on agar that contains the substance at set levels.
For the next data set, the system named is P. Aeruginosa A5007. The data set can be described thus: Acute mouse protection test. Particulars: mice infected i.p. with P. Aeruginosa A5007, observed 7 days; for SC (ED50): SC dosing at 1 and 5 hours post-infection; for Oral (ED50): oral dosing at 1 and 5 hours post-infection. In kind it is in vivo.
The subject of data set [2] is ENTEROCOCCUS FAECIUM ATCC 8043. The data set can be described thus: In vitro MIC, agar dilution (BHIA). In kind it is cell-based.
For data set [3], the system named is ENTEROBACTER AEROGENES ATCC 13048. The data set can be described thus: In vitro MIC, agar dilution (BHIA). In kind it is cell-based.
Another data set concerns ACINETOBACTER SP CMX 669. Nature of the data set: In vitro MIC, agar dilution (BHIA). It counts as cell-based.
Data set [4] has as its system STREPTOCOCCUS AGALACTIAE CMX 508. The data set can be described thus: In vitro MIC, agar dilution (BHIA). In kind it is cell-based.
A further data set deals with PSEUDOMONAS CEPACIA 296I. The data set can be described thus: In vitro MIC, agar dilution (BHIA). In kind it is cell-based.
Data set [5] is described as follows: Conversion of prodrug to parent drug in whole blood at 37° C. In kind it is in vitro ADME, Dog. How it is done:
(§1) An aqueous solution of prodrug (Z) is spiked into fresh whole blood containing sodium heparin as an anticoagulant. The sample is mixed gently by inversion and placed in a 37° waterbath. At selected time intervals an 0.5 ml aliquot of blood is removed and placed in a chilled 1.5 ml centrifuge tube (ice temperature). Samples are centrifuges at 13,000 rpm for two minutes to separate plasma. An 0.2 ml aliquot of the plasma sample is combined with 0.2 ml internal standard (7-(4-amino-2-methyl-1-pyrrolidinyl)-1-(2,4-difluorophenyl)-6-fluoro-1,4-d ihydro-4-oxo-1,8-naphthyridine-3-carboxylic acid in 0.2M sodium phosphate pH 7.2 buffer) and 6 mls CH2 Cl2 :EtoH (9:1 by volume). Samples are capped and shaken gently for 10 minutes. Samples are centrifuges at 2500 rpm for 10 minutes (4° C.). The aqueous layer is aspirated to waste and the organic layer is transferred to a conical centrifuge tube and evaporated to dryness with a stream of dry air and low heat ([…]). Samples are reconstituted with 0.2 ml mobile phase followed by vortexing. Samples are centrifuges at 2500 rpm for 10 minutes to separate precipitate. The supernatant is transferred to a WISP vial with plastic insert for HPLC analysis.

The next data set has as its system ESCHERICHIA COLI SS. The data set can be described thus: In vitro MIC, agar dilution (BHIA). In kind it is cell-based. From the text: (§2) The MIC results are in ug/ml.
For a further data set, the system named is ESCHERICHIA COLI H560. Nature of the data set: In vitro MIC, agar dilution (BHIA). In kind it is cell-based.
Source text: as §2

For another data set, the system named is E. Coli Juhl. The data set can be described thus: Acute mouse protection test. Particulars: mice infected i.p. with E. Coli JUHL, observed 7 days; for SC (ED50): SC dosing at 1 and 5 hours post-infection; for Oral (ED50): oral dosing at 1 and 5 hours post-infection. In kind it is in vivo.
Data set [6] has as its system MICROCOCCUS LUTEUS ATCC 4698. Nature of the data set: In vitro MIC, agar dilution (BHIA). It counts as cell-based.
In data set [7] the test system is KLEBSIELLA PNEUMONIAE ATCC 8045. The data set can be described thus: In vitro MIC, agar dilution (BHIA). In kind it is cell-based.
Data set [8] can be described thus: Conversion of prodrug to parent drug in whole blood at 37° C. It counts as in vitro ADME, Human. As for the experimental part:
as §1

The subject of another data set is ESCHERICHIA COLI JUHL. Nature of the data set: In vitro MIC, agar dilution (BHIA). It counts as cell-based.
Data set [9] in a line: Conversion of prodrug to parent drug in whole blood at 37° C. It counts as in vitro ADME, Rat. How it is done: as §1
Data set [10] relates to MICROCOCCUS LUTEUS ATCC 9341. The data set can be described thus: In vitro MIC, agar dilution (BHIA). In kind it is cell-based.
In data set [11] the test system is STREPTOCOCCUS PYOGENES 2548 INDUC. Nature of the data set: In vitro MIC, agar dilution (BHIA). In kind it is cell-based.
For data set [12], the system named is PSEUDOMONAS AERUGINOSA BMH10. The data set can be described thus: In vitro MIC, agar dilution (BHIA). It counts as cell-based.
The test system of the next data set is Stap. Aureus NCTC 10649. The data set can be described thus: Acute mouse protection test. It counts as in vivo. Particulars: mice infected i.p. with Stap. Aureus NCTC 10649, observed 7 days; for SC (ED50): SC dosing at 1 and 5 hours post-infection; for Oral (ED50): oral dosing at 1 and 5 hours post-infection.
The test system of data set [13] is STREPTOCOCCUS PYOGENES EES61. The data set can be described thus: In vitro MIC, agar dilution (BHIA). It counts as cell-based.
For data set [14], the system named is PSEUDOMONAS AERUGINOSA K799/WT. Nature of the data set: In vitro MIC, agar dilution (BHIA). It counts as cell-based.
Data set [15] concerns PROVIDENCIA STUARTII CMX 640. Nature of the data set: In vitro MIC, agar dilution (BHIA). It counts as cell-based.
The test system of data set [16] is PSEUDOMONAS AERUGINOSA A5007. Nature of the data set: In vitro MIC, agar dilution (BHIA). In kind it is cell-based.
Data set [17] concerns STREPTOCOCCUS PYOGENES 930 CONST. Nature of the data set: In vitro MIC, agar dilution (BHIA). It counts as cell-based.
Data set [18] has as its system STREPTOCOCCUS BOVIS A5169. Nature of the data set: In vitro MIC, agar dilution (BHIA). In kind it is cell-based.
Data set [19] is described as follows: Plasma level in dog after oral dose. Particulars: 10 mg equivalent/kg oral dose, HPLC. The source says: The plasma samples were collected and determined by the HPLC analysis.
A short description of data set [20]: Solubility in water and at pH 7.4. As to conditions: for Water Solubility: the sign > refers to an approximate value and the solubility may be within 10% higher.
[21] abbreviates: STREPTOCOCCUS AGALACTIAE CMX 508.

As to `NC(Cc1ccccc1)C(=O)NC1CCN(c2nc3c(cc2F)c(=O)c(C(=O)O)cn3-c2ccc(F)cc2F)C1` (centres unmarked) [Example 5], the MIC was 1.56 µg/mL (≈ 2.83 µM) in data set [1]; 3.1 µg/mL (≈ 5.62 µM) in [2]; 12.5 µg/mL (≈ 22.7 µM) in data set [3]; 12.5 µg/mL (≈ 22.7 µM) in the data set on ACINETOBACTER SP CMX 669; 3.1 µg/mL (≈ 5.62 µM) in data set [4] (setting [21]); greater than 100 µg/mL in the data set with PSEUDOMONAS CEPACIA 296I. Also, the MIC result was “.1 µg/mL” against ESCHERICHIA COLI SS; 3.1 µg/mL (≈ 5.62 µM) against ESCHERICHIA COLI H560; 12.5 µg/mL (≈ 22.7 µM) in data set [6]; 1.56 µg/mL (≈ 2.83 µM) in data set [7]; 3.1 µg/mL (≈ 5.62 µM) in the data set with ESCHERICHIA COLI JUHL; 25 µg/mL (≈ 45.3 µM) in data set [10]. Also, the MIC result is “.78 µg/mL” in data set [11]; 25 µg/mL (≈ 45.3 µM) in data set [12]; 3.1 µg/mL (≈ 5.62 µM) in data set [13] (STREPTOCOCCUS PYOGENES EES61); 25 µg/mL (≈ 45.3 µM) in [14]; greater than 100 µg/mL in [15]; 50 µg/mL (≈ 90.7 µM) in data set [16]. Also, the figures for the “SC (ED50)” value in the data set with P. Aeruginosa A5007, with E. Coli Juhl and in the data set with Stap. Aureus NCTC 10649 were 7.5 mg/kg/day, 0.7 mg/kg/day and 1.0 mg/kg/day, respectively. The entries for the “Oral (ED50)” value in the data set with P. Aeruginosa A5007, in the data set with E. Coli Juhl and in the data set with Stap. Aureus NCTC 10649 were 18.6 mg/kg/day, 3.5 mg/kg/day and 3.6 mg/kg/day, respectively. Also, in [5], the “Half Life Dog” value is reported as 8.3 m. For the same compound, the “Half Life Human” value in data set [8] came out at 10.7 m. Moreover, the “Half Life Rat” value in [9] was found to be 4.5 m.
As to `NCC(=O)N[C@@H](Cc1ccccc1)C(=O)NC1CCN(c2nc3c(cc2F)c(=O)c(C(=O)O)cn3-c2ccc(F)cc2F)C1` (stereo partly drawn) [Example 1b, 7-[(3-Gly-L-Phe-amino)-1-pyrrolidinyl]-1-(2,4-difluorophenyl)-6-fluoro-1,4-dihydro-4-oxo-1,8-naphthyridine-3-carb oxylic acid hydrochloride], the MIC in data set [1] is 12.5 µg/mL; in data set [17], “.78 µg/mL”; against ACINETOBACTER SP CMX 669, 12.5 µg/mL; in data set [4] (STR[…] 508), 1.56 µg/mL; in the data set with PSEUDOMONAS CEPACIA 296I, 50 µg/mL; in the data set with ESCHERICHIA COLI SS, “.2 µg/mL”. For the same compound, the minimum inhibitory concentration (MIC) is 1.56 µg/mL in the data set with ESCHERICHIA COLI H560; 1.56 µg/mL in [18] (STR[…] A5169); “.78 µg/mL” in [6]; 12.5 µg/mL in [7]; 6.25 µg/mL in data set [10]; “.78 µg/mL” in data set [11]. Moreover, the MIC in [12] was 25 µg/mL; in data set [13] (STR[…] EES61) it was 1.56 µg/mL; in data set [14] it was 25 µg/mL; in data set [15], 100 µg/mL; in data set [16], 25 µg/mL. For the same compound, the “SC (ED50)” value is recorded as 8.0 mg/kg/day with P. Aeruginosa A5007, 0.6 mg/kg/day in the data set on E. Coli Juhl and 0.5 mg/kg/day in the data set on Stap. Aureus NCTC 10649. In addition, the “Oral (ED50)” value turned out to be 27.3 mg/kg/day in the data set on P. Aeruginosa A5007, 1.8 mg/kg/day in the data set on E. Coli Juhl and 0.7 mg/kg/day in the data set on Stap. Aureus NCTC 10649.
`CCC[C@H](NC(=O)[C@H](C)N)C(=O)NC1CCN(c2nc3c(cc2F)c(=O)c(C(=O)O)cn3-c2ccc(F)cc2F)C1` (some centres unmarked) [Example 55b, 7-(3-Ala-Nval-amino-1-pyrrolidinyl)-6-fluoro-1-(2,4-difluorophenyl)-1,4-di hydro-4-oxo-1,8-naphthyridine-3-carboxylic acid]: the “Half Life Dog” value in data set [5] (conversion to parent drug in dog whole blood at 37° C., seconds) was 118.0 s. The “Half Life Human” value in [8] (conversion to parent drug in human whole blood at 37° C., seconds) stood at 88.0 s. Also, the “Half Life Rat” value in data set [9] (conversion to parent drug in rat whole blood at 37° C., seconds) came out at 33.2 s. Besides, in [19], the “AUC (0-32h)” value turned out to be 15.4. In [20], the “Solubility pH 7.4” value came to 1.03 mg/ml and the “Water Solubility” value was found to be 26 mg/mL.
As to “7-[3-Norvaline-amino-1-pyrrolidinyl]-1-(2,4-difluorophenyl)-6-fluoro-1,4-di hydro-4-oxo-1,8-naphthyridine-3-carboxylic acid hydrochloride [Example 2b]”, the minimal inhibitory concentration (MIC) entry is “.39 µg/mL” in [1]; “.78 µg/mL” in [2]; “.78 µg/mL” in data set [17]; 1.56 µg/mL in [4] (setting [21]); 50 µg/mL against PSEUDOMONAS CEPACIA 296I; “.78 µg/mL” in the data set with ESCHERICHIA COLI H560. In addition, the MIC in data set [18] (STREPTOCOCCUS BOVIS A5169) was 1.56 µg/mL; in data set [6] it was 25 µg/mL; in data set [7], “.39 µg/mL”; against ESCHERICHIA COLI JUHL it was “.78 µg/mL”; in [10] it was 25 µg/mL; in data set [11], “.39 µg/mL”. Besides, the MIC in [12] is 6.2 µg/mL; in data set [13] (STREPTOCOCCUS PYOGENES EES61), 1.56 µg/mL; in data set [14], 6.2 µg/mL; in [16], 12.5 µg/mL. For the same compound, the “Half Life Human” value in data set [8] is reported as 75.5 s. In data set [9], the “Half Life Rat” value is 40.7 s.
`CCC[C@H](NC(=O)CN)C(=O)NC1CCN(c2nc3c(cc2F)c(=O)c(C(=O)O)cn3-c2ccc(F)cc2F)C1` (some centres unmarked) [Example 52]: the “AUC (0-32h)” value in data set [19] is given as 13.9. Also, in data set [20], the “Solubility pH 7.4” value is 0.08 mg/ml and the “Water Solubility” value is 6.89 mg/mL.
